{"source": "patent US7476316B2", "about": "“Molecularly imprinted polymers (MIPS) for the selective removal of inorganic contaminants from liquids” (priority 2005, dated 2009)", "key": {"[1]": {"settings": "cited from earlier work"}, "[2]": {"assay": "removal of gold-containing cations from water by ligand-based MIP", "settings": "ligand used in cationic molecularly imprinted polymer", "description": "(§1) General classes of cationic ligands that can be used in the present method include, but are not limited to, cationic oxygen containing heterocyclics, cationic nitrogen containing heterocyclics, cationic sulfur containing heterocyclics, cationic phosphorous containing heterocyclics, ammonium salts, phosphonium salts, acylinium salts, metallocenium salts, amidinium salts, imminium salts, and trityl salts. In one embodiment, the ligand can be 4-vinylbenzyl-N,N-dimethyl-N-decylammonium, 4-vinylbenzyl-N-decyl-N-methylglucammonium, N-methyl vinylpyridinium, or 4-vinylbenzyl-N,N-dimethyl-D-glucammonium."}, "[3]": {"assay": "removal of arsenate from water by ligand-based MIP", "settings": "ligand used in suspension polymerization MIP", "description": "as §1"}}, "data": [{"smiles": "OCCCCCO", "note": "[1,5-pentanediol]", "values": [{"measurement": "miscibility with water", "setting": "[1]", "result": "completely miscible"}]}, {"smiles": "C=Cc1ccc(C[N+](C)(C)CCCCCCCCCC)cc1.[Cl-]", "note": "[Example 1, N-(4-vinylbenzyl)-N-decyl-N,N-dimethylammonium chloride]", "values": [{"measurement": "removal of gold-containing cations from water", "setting": "[2]", "result": "particularly good results"}, {"measurement": "removal of arsenate from water", "setting": "[3]", "result": "good results"}]}, {"smiles": "CCCCCO", "note": "[Example 1-pentanol, 1-pentanol]", "values": [{"measurement": "soluble in water", "setting": "[1]; in water", "result": 2.3, "unit": "% weight/weight"}]}, {"smiles": "C=Cc1ccc(C[N+](C)(CCCCCCCCCC)C[C@H](O)[C@@H](O)[C@H](O)[C@H](O)CO)cc1.[I-]", "note": "(stereo partly drawn) [Example 3, N-(4-Vinylbenzyl)-N-decyl-N-methylglucammonium iodide]", "values": [{"measurement": "removal of arsenate from water", "setting": "[3]", "result": "good results"}]}, {"smiles": "CCCCC", "note": "[n-pentane]", "values": [{"measurement": "miscibility with water", "setting": "[1]", "result": "completely immiscible"}]}]}
